From ChEMBL document CHEMBL1201862, “PubChem BioAssay data set” (2004)
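Grown in 96-well plates, cells were treated for 48 hours with each compound at five concentrations. Insufficient inhibition: endpoint recorded as highest concentration tested. GI50 = concentration required for 50% inhibition of growth.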 The source made the active and inactive calls. No stated cut-off is given here; in the data, active = GI50 up to about 1.1 µM and inactive = higher.

Tests used:
Assay in all cases: NCI tumour cell line growth inhibition, 48 h
ACHN = test system: ACHN
SF-539 = test system: SF-539
NCI/ADR-RES = test system: NCI/ADR-RES
SK-MEL-5 = test system: SK-MEL-5
NCI-H23 = test system: NCI-H23
T47D = test system: T47D
U-251 = test system: U-251
SW-620 = test system: SW-620
SK-MEL-28 = test system: SK-MEL-28
PC-3 = test system: PC-3
COLO 205 = test system: COLO 205
HOP-62 = test system: HOP-62
SF-268 = test system: SF-268
EKVX = test system: EKVX
NCI-H522 = test system: NCI-H522
UACC-257 = test system: UACC-257
Hs-578T = test system: Hs-578T
DU-145 = test system: DU-145
A549 = test system: A549
LOX IMVI = test system: LOX IMVI
MDA-MB-435 = test system: MDA-MB-435
MDA-MB-231 = test system: MDA-MB-231
HL-60 = test system: HL-60
MCF7 = test system: MCF7
OVCAR-3 = test system: OVCAR-3
786-0 = test system: 786-0
UACC-62 = test system: UACC-62
HCC 2998 = test system: HCC 2998
M14 = test system: M14
NCI-H460 = test system: NCI-H460
HCT-15 = test system: HCT-15
K562 = test system: K562
SN12C = test system: SN12C
HCT-116 = test system: HCT-116
CCRF-CEM = test system: CCRF-CEM
HT-29 = test system: HT-29
SK-MEL-2 = test system: SK-MEL-2
UO-31 = test system: UO-31
SK-OV-3 = test system: SK-OV-3
A498 = test system: A498
MDA-N = test system: MDA-N
OVCAR-8 = test system: OVCAR-8
TK-10 = test system: TK-10
CAKI-1 = test system: CAKI-1
OVCAR-4 = test system: OVCAR-4
RPMI-8226 = test system: RPMI-8226
KM12 = test system: KM12
IGROV-1 = test system: IGROV-1
SNB-19 = test system: SNB-19
OVCAR-5 = test system: OVCAR-5
SF-295 = test system: SF-295
MOLT-4 = test system: MOLT-4
NCI-H226 = test system: NCI-H226
Malme-3M = test system: Malme-3M
BT-549 = test system: BT-549
HOP-92 = test system: HOP-92
RXF 393 = test system: RXF 393
SNB-75 = test system: SNB-75

With `COc1ccc(/C=C2\Sc3nnc(C)n3N=C2c2cc(F)c(Cl)cc2Cl)cc1OC` the GI50 (ACHN) was 12.6 µM (inactive), the GI50 (SF-539) was 17 µM (inactive) and the GI50 (NCI/ADR-RES) was 14.6 µM (inactive). The GI50 (SK-MEL-5) was 18.8 µM (inactive), the GI50 (NCI-H23) was 12.4 µM (inactive) and the GI50 (T47D) was 24.8 µM (inactive). For the same compound, the GI50 (U-251) was 15.8 µM (inactive), the GI50 (SW-620) was 5.33 µM (inactive) and the GI50 (SK-MEL-28) was 23.3 µM (inactive). For the same compound, the GI50 (PC-3) was 18.7 µM (inactive), the GI50 (COLO 205) was 22.3 µM (inactive) and the GI50 (HOP-62) was 17 µM (inactive). For the same compound, the GI50 (SF-268) was 22.4 µM (inactive), the GI50 (EKVX) was 10.8 µM (inactive) and the GI50 (NCI-H522) was 11.3 µM (inactive). For the same compound, the GI50 (UACC-257) was 17 µM (inactive), the GI50 (Hs-578T) was 41.9 µM (inactive) and the GI50 (DU-145) was 14.7 µM (inactive). The GI50 (A549) was 21.2 µM (inactive), the GI50 (LOX IMVI) was 13.8 µM (inactive) and the GI50 (MDA-MB-435) was 10.4 µM (inactive). For the same compound, the GI50 (MDA-MB-231) was 26.4 µM (inactive), the GI50 (HL-60) was 8.95 µM (inactive) and the GI50 (MCF7) was 5.87 µM (inactive). For the same compound, the GI50 (OVCAR-3) was 4.52 µM (inactive), the GI50 (786-0) was 2.97 µM (inactive) and the GI50 (UACC-62) was 16.7 µM (inactive). The GI50 (HCC 2998) was 17.6 µM (inactive), the GI50 (M14) was 13.6 µM (inactive) and the GI50 (NCI-H460) was 20.8 µM (inactive). The GI50 (HCT-15) was 6.93 µM, the GI50 (K562) was 3.09 µM (inactive) and the GI50 (SN12C) was 17.5 µM (inactive). The GI50 (HCT-116) was 5.98 µM (inactive), the GI50 (CCRF-CEM) was 4.18 µM (inactive) and the GI50 (HT-29) was 13.2 µM (inactive). For the same compound, the GI50 (SK-MEL-2) was 15.9 µM (inactive), the GI50 (UO-31) was 10.4 µM (inactive) and the GI50 (SK-OV-3) was 30.1 µM (inactive). For the same compound, the GI50 (A498) was 19.3 µM (inactive), the GI50 (MDA-N) was 5.32 µM (inactive) and the GI50 (OVCAR-8) was 15.5 µM (inactive). For the same compound, the GI50 (TK-10) was 17.9 µM (inactive), the GI50 (CAKI-1) was 8.13 µM (inactive) and the GI50 (OVCAR-4) was 13.2 µM (inactive). The GI50 (RPMI-8226) was 2.58 µM (inactive), the GI50 (KM12) was 15.2 µM (inactive) and the GI50 (IGROV-1) was 16 µM (inactive). The GI50 (SNB-19) was 1.19 µM (inactive), the GI50 (OVCAR-5) was 15.6 µM (inactive) and the GI50 (SF-295) was 22.1 µM (inactive). The GI50 (MOLT-4) was 3.35 µM (inactive), the GI50 (NCI-H226) was 23.2 µM (inactive) and the GI50 (Malme-3M) was 18.3 µM (inactive). The GI50 (BT-549) was 17.8 µM (inactive), the GI50 (HOP-92) was 13.8 µM (inactive) and the GI50 (RXF 393) was 15.9 µM (inactive).

With `Cc1cc(Nc2ccc(S(=O)(=O)O)c3cc(S(=O)(=O)O)cc(S(=O)(=O)O)c23)c2ccccc2n1` the GI50 (ACHN) was > 100 µM (inactive), the GI50 (SF-539) was > 100 µM (inactive) and the GI50 (NCI/ADR-RES) was > 100 µM (inactive). The GI50 (SK-MEL-5) was > 100 µM (inactive), the GI50 (NCI-H23) was > 100 µM (inactive) and the GI50 (T47D) was > 100 µM (inactive). For the same compound, the GI50 (U-251) was > 100 µM (inactive), the GI50 (SW-620) was > 100 µM (inactive) and the GI50 (SK-MEL-28) was > 100 µM (inactive). The GI50 (PC-3) was > 100 µM (inactive), the GI50 (COLO 205) was > 100 µM (inactive) and the GI50 (HOP-62) was > 100 µM (inactive). For the same compound, the GI50 (SF-268) was > 100 µM (inactive), the GI50 (EKVX) was > 100 µM (inactive) and the GI50 (NCI-H522) was > 100 µM (inactive). The GI50 (UACC-257) was > 100 µM (inactive), the GI50 (Hs-578T) was > 100 µM (inactive) and the GI50 (DU-145) was > 100 µM (inactive). For the same compound, the GI50 (A549) was > 100 µM (inactive), the GI50 (LOX IMVI) was > 100 µM (inactive) and the GI50 (MDA-MB-435) was > 100 µM (inactive). The GI50 (MDA-MB-231) was > 100 µM (inactive), the GI50 (HL-60) was > 100 µM (inactive) and the GI50 (MCF7) was > 100 µM (inactive). For the same compound, the GI50 (OVCAR-3) was > 100 µM (inactive), the GI50 (786-0) was > 100 µM (inactive) and the GI50 (UACC-62) was > 100 µM (inactive). For the same compound, the GI50 (HCC 2998) was > 100 µM (inactive), the GI50 (M14) was > 100 µM (inactive) and the GI50 (NCI-H460) was > 100 µM (inactive). For the same compound, the GI50 (HCT-15) was over 100 µM, the GI50 (SN12C) was > 100 µM (inactive) and the GI50 (HCT-116) was > 100 µM (inactive). For the same compound, the GI50 (HT-29) was > 100 µM (inactive), the GI50 (SK-MEL-2) was > 100 µM (inactive) and the GI50 (UO-31) was > 100 µM (inactive). The GI50 (SK-OV-3) was > 100 µM (inactive), the GI50 (A498) was > 100 µM (inactive) and the GI50 (MDA-N) was > 100 µM (inactive). The GI50 (OVCAR-8) was > 100 µM (inactive), the GI50 (TK-10) was > 100 µM (inactive) and the GI50 (CAKI-1) was > 100 µM (inactive). For the same compound, the GI50 (OVCAR-4) was > 100 µM (inactive), the GI50 (RPMI-8226) was > 100 µM (inactive) and the GI50 (KM12) was > 100 µM (inactive). For the same compound, the GI50 (IGROV-1) was > 100 µM (inactive), the GI50 (SNB-19) was > 100 µM (inactive) and the GI50 (SNB-75) was > 100 µM (inactive). The GI50 (OVCAR-5) was > 100 µM (inactive), the GI50 (SF-295) was > 100 µM (inactive) and the GI50 (MOLT-4) was > 100 µM (inactive). For the same compound, the GI50 (NCI-H226) was > 100 µM (inactive), the GI50 (Malme-3M) was > 100 µM (inactive) and the GI50 (BT-549) was > 100 µM (inactive). The GI50 (RXF 393) was > 100 µM (inactive).
